This data set is described as follows: Human HepG2 cell viability assay in 384 well format. The data set is classed as toxicity, cell-based. Further details: dose 125 nL, time 70.5 hour; cytotoxicity at 70.5 h: concentration not given beside the values. To be noted: HepG2 cells, read-out: Inhibition.
On to `CC(=O)N1CCCCC1c1nc2c(c(N3CCCCC3)n1)CN(C)CC2` (centres undefined), for which the cytotoxicity at 70.5 h is -1.02%.
Then `CCc1cnc(N2CCOC(CCOC)C2)nc1` (centres undefined), with -13.5%; and `CCn1ncnc1CN1CCc2[nH]cnc2C1CCc1ccccc1` (centres undefined), with -4.41%.
In the case of `N#Cc1ncn(CC(=O)N2CCCC2c2cccs2)n1` (centres undefined), the cytotoxicity at 70.5 h was determined as 22.9%.
For `C1CCC(NC2CCCN(Cc3noc(C4CC4)n3)C2)C1` (centres undefined) the value was -15.1%; for `O=C(CCc1ccsc1)Nc1cccnc1N1CCCC1`, -6.9%; for `Cc1ccc(C(=O)N[C@H]2CN(CCO)C[C@@H]2C2CC2)cc1Cl`, 1.11%.
Then `Cc1nn(CCO)c(C)c1CNC1CCc2c(Cl)cccc21` (centres undefined), with 10.2%; and `CCS(=O)(=O)N1C[C@@H]2CN(Cc3ccco3)CCO[C@@H]2C1`, with 27.9%.
`CCN(CC)c1ncc(CNCC2CCCn3ccnc32)s1` (centres undefined): the cytotoxicity at 70.5 h worked out at 8.16%.
Regarding `O=C(c1c(F)cccc1F)N1CCOCC1`, the cytotoxicity at 70.5 h turned out to be 18.9%.
For the compound `CCc1nsc(N2CCCN(C(=O)c3ccc(CC)o3)CC2)n1`, the cytotoxicity at 70.5 h is -11%.
Then `Cc1noc(CC2CCN(C(=O)C(c3ccccc3C)N(C)C)CC2)n1` (centres undefined), with -12.1%; and `CC(=O)N1N=C(c2cccs2)OC1C(=O)Nc1ccccc1` (centres undefined), with -8.33%.
For `COCC(=O)N1CCc2[nH]nc(-c3ccc4c(c3)OCO4)c2C1` the value was -3.34%.
In the case of `O=C(N1CCCO1)[C@@]12CCO[C@@H]1CCN(Cc1cccnc1)C2`, the cytotoxicity at 70.5 h is -9.68%.
Turning to `Oc1nc(N2CCCC2)nc2c1CCN(Cc1cccnc1)CC2`, the cytotoxicity at 70.5 h is -5.83%.
Regarding `O=C1[C@H]2CN(CC3CC3)C[C@H]2CN1c1ccsc1`, the cytotoxicity at 70.5 h was -3.2%.
Then `Cc1cnn(CCNCc2nc(-c3ccccc3Cl)no2)c1`, with 31.1%; and `N[C@H]1CN(C(=O)CCCc2ccc(F)cc2)C[C@@H]1C1CC1`, with -6.92%.
Consider `Cc1cnc(CNc2ccccc2CN(C)C(=O)c2cccs2)o1`, for which the cytotoxicity at 70.5 h worked out at 18.4%.
For `Cc1ccc(C(CNCc2cnn(C(C)C)c2)N2CCOCC2)s1` (centres undefined), the cytotoxicity at 70.5 h is -0.62%.
On to `O=C(Cc1cccs1)N1CC[C@H]2[C@H]1CCN2Cc1cccnc1`, for which the cytotoxicity at 70.5 h is -6.88%.
Then `CC(NCC1(N(C)C)CCOCC1)c1ccc(Cl)cc1` (centres undefined), with -3.88%; and `Cc1noc(C2CCCN(C(=O)c3ccc(Br)o3)C2)n1` (centres undefined), with 19.7%; and `O=C1CC(c2ccco2)c2sc(C(=O)O)c(-c3ccccc3)c2N1` (centres undefined), with -13.5%.
Then `O=C(c1ccnnc1)N1C[C@@H](OCC2CCCC2)[C@H]2OCCC[C@H]21`, with -3.04%.
For `CN1CC2(CNCCN(C(=O)Nc3ccccc3)C2)CC1=O` (centres undefined) the value was -7.57%.
Consider `CC(=O)N[C@@H]1Cc2ccccc2[C@H]1Nc1nnc(C2CC2)o1`, for which the cytotoxicity at 70.5 h was -7.5%.
`CC1CCN(S(=O)(=O)NCCCn2cncn2)CC1`: the cytotoxicity at 70.5 h is -0.69%.
For `CS(=O)(=O)NCCC(=O)N1Cc2cnc(-c3ccccc3)nc2C1`, the cytotoxicity at 70.5 h stood at 2.41%.
For `O=C(NCC(O)c1ccsc1)c1sccc1OC(F)F` (centres undefined) the value was -13.8%.
`N#Cc1c(Cl)nsc1NCCN1CCOCC1`: the cytotoxicity at 70.5 h was -10.1%.
`Cc1cc(C)n(CC2CCCN2C(=O)CCc2cscn2)n1` (centres undefined): the cytotoxicity at 70.5 h is -8.27%.
Then `O=C(CC1CCN(c2cccnn2)CC1)NC1CCOCC1`, with -17%; and `CN1CC(=O)N(C2CCNCC2)Cc2c(NCC(C)(C)C)ncnc21`, with -9.73%.
Take `COc1cccc(SCC(=O)N2CCCC(N3CCCC3=O)C2)c1` (centres undefined): the cytotoxicity at 70.5 h was -1.58%.
Regarding `Cc1cc(C2CCCN(CCCS(N)(=O)=O)C2)n[nH]1` (centres undefined), the cytotoxicity at 70.5 h is -5.94%.
With `CCOC(=O)[C@@H]1[C@@H](OC)C(=O)N(C)C12CCN(C(=O)C(CC)CC)CC2`, the cytotoxicity at 70.5 h is -7.55%.
`O=C(c1cocn1)N1C[C@H]2CCC[C@@]2(COCc2cccnc2)C1`: the cytotoxicity at 70.5 h is -1.51%.
For `Cc1ccc(CN2CCC(n3cc(C(O)c4ccccc4)nn3)CC2)o1` (centres undefined) the value was -5.94%; for `Cc1nc(N2CCCC2)ncc1C(=O)Nc1ccc(Br)cc1`, -2.71%.
For `CC(=O)Nc1nc(CN2CCOC(Cn3cccn3)C2)cs1` (centres undefined) the value was -5.08%; for `CNC(=O)NCC(=O)N1CCCC1Cc1cccc(F)c1` (centres undefined), 2.87%.
With `Cc1occc1C(=O)N1CCC2(CCCN(CC3CCC3)C2=O)C1` (centres undefined), the cytotoxicity at 70.5 h was -4.3%.
With `CCCC1CCCN(C(=O)CCn2cccn2)CC1` (centres undefined), the cytotoxicity at 70.5 h amounted to 22.3%.
For `COc1ccc2c(c1)OCC(Cc1ccc(CN)cn1)C2` (centres undefined) the value was -7.48%.
Then `Cc1ccc2nc(C)cc(C(=O)NC(C)c3nnn[nH]3)c2c1` (centres undefined), with -0.653%; and `CCOc1ccc(CNC(=O)N2CCCC(CO)C2)cc1F` (centres undefined), with 0.25%.
Take `COc1ncc(NCc2ccc(C#N)cc2)cc1C(N)=O`: the cytotoxicity at 70.5 h is -4.6%.
Then `Cc1ncsc1C(=O)NC1CCN(CC(=O)NCc2ccccc2)CC1`, with 2.21%.
Then `Cc1nc[nH]c1CN1CCC(C2CCN(CCc3ccccc3)C2)CC1` (centres undefined), with -1.67%.
As for `CCOc1ncnc2c1CCN(S(=O)(=O)CC)CC2`, the cytotoxicity at 70.5 h was found to be 14.3%.
For `COc1cccc(-n2cc(CN(C)Cc3ccnc(C(C)C)n3)cn2)c1`, the cytotoxicity at 70.5 h was -6.06%.
Take `Cc1ccc(C(=O)N2C[C@H]3CN(Cc4csc(C)n4)C[C@H]3C2)cn1`: the cytotoxicity at 70.5 h stood at 1.63%.
Then `CN1CCCC(c2nccnc2-c2cccc(C(F)(F)F)c2)C1` (centres undefined), with -0.583%; and `Cc1noc(C)c1-c1n[nH]c2c1CN(S(=O)(=O)c1cccs1)CC2`, with 0.699%; and `Cc1ccc(CN(C)Cc2cnc(N3CCOCC3)s2)o1`, with 22.4%.
In the case of `Cc1ccc(C(NC(=O)Cn2cc(C3CC3)nn2)C2CC2)cc1` (centres undefined), the cytotoxicity at 70.5 h is -7.56%.
Then `Cn1ccnc1CN1CCC2(CC(=O)N(c3ccccn3)C2)C1` (centres undefined), with -10.7%; and `Cc1nc(NCc2cccnc2)c2c(n1)c(C)nn2C`, with -11.5%; and `Cc1ncc(CNC2CCc3nc(C(C)C)nn3C2)s1` (centres undefined), with 1.67%.
Regarding `Cc1ncsc1C(=O)NCc1ccnc(OCC(F)(F)F)c1`, the cytotoxicity at 70.5 h was -11.3%.
Then `CCN1C(=O)C2(CCOCC2)c2cc(NC(=O)c3ccco3)ccc21`, with -8.84%; and `O=C(CCCc1nnc(-c2ccccc2)o1)N1CCN(CCO)CC1`, with -32.4%; and `CC(=O)N1CCN(Cc2ccc(F)c(C(F)(F)F)c2)CC(O)C1` (centres undefined), with -8.55%.
Turning to `CCOC(=O)CC1CCCCN1C(=O)c1cccc2ccnn12` (centres undefined), the cytotoxicity at 70.5 h was -6.11%.
Take `COc1ncccc1CN1C[C@H](C(=O)N2CCCO2)[C@@H]2CCO[C@@H]2C1`: the cytotoxicity at 70.5 h is -6.23%.
For `CNc1cc(-c2ccncc2)ncn1` the value was 23.1%; for `COCC(=O)N1CCCC1(C)c1nc(C)cc(O)n1` (centres undefined), -10.5%; for `O=C(Cc1ccc2c(c1)OCCO2)N1CCCC(n2ccnc2)C1` (centres undefined), 18.8%.
Regarding `COc1ccc(-c2nc3c([nH]2)CCCNC3=O)cc1OC`, the cytotoxicity at 70.5 h is 4.81%.
Then `Cc1cc(C)c2cc(CNCc3cccnc3)c3nn(C)c(=O)n3c2c1`, with -0.562%; and `COCCN1C(=O)CC[C@@H]2[C@H]1CCN2C(=O)C1CCOCC1`, with -7.67%.
Then `CCC(=O)N1CCCN(Cn2nc(C)c(Br)c2C)CC1`, with -0.667%; and `Cc1ccc(-c2noc(CN3CCOC(CN(C)C)C3)n2)cc1F` (centres undefined), with -0.0729%; and `CNc1ncc(CN(C)C(=O)c2c[nH]nc2-c2cccc(F)c2)cn1`, with -6.7%.
With `Cc1cccc(N2CCCC2c2nc(C)ncc2CN(C)C)n1` (centres undefined), the cytotoxicity at 70.5 h was -4.92%.
For `Cc1ccc(C(=O)N2CCC3(CCN(c4ccsc4)C3=O)C2)cn1` (centres undefined) the value was 6.79%; for `c1cc(CN2CCCC3(CCN(CC4CCCO4)CC3)C2)n[nH]1` (centres undefined), -6.85%; for `CCSc1ncccc1C(=O)NCc1ccc(N(C)C)cc1`, -7.85%.
For the compound `Cc1cc(=O)[nH]c(=O)n1Cc1ccccc1`, the cytotoxicity at 70.5 h was -7.18%.
Then `Cc1nc(CN2CC[C@@H](OCC3CC3)[C@@H]2Cc2cccnc2)cs1`, with -0.893%; and `CCC(C(=O)NCc1ccncc1)N(c1cccc(Cl)c1)S(C)(=O)=O` (centres undefined), with -2.79%; and `N[C@H]1CCCN(C(=O)c2cnc(COc3ccccc3)nc2O)C1`, with -9.44%.
With `COCC(=O)N1CCN(c2cc(-n3cccc3)nc(C)n2)CC1`, the cytotoxicity at 70.5 h was 5.98%.
Consider `CN(C)C(=O)c1c[nH]nc1C1CCN(S(=O)(=O)c2ccc(Cl)cc2)CC1`, for which the cytotoxicity at 70.5 h was 17.9%.
Then `CN1CCOC(CNCc2csc(C3CCCCC3)n2)C1` (centres undefined), with -13.3%; and `CN(C)C(=O)N1CCN(C(=O)C(c2ccccc2F)N(C)C)CC1` (centres undefined), with -4.32%.
Then `CC1CCc2nn(CCNC(=O)Cc3ccc(F)cc3)c(=O)cc2C1` (centres undefined), with -4.91%.
Then `COC(=O)CCNC(=O)C1CC(=O)N(C2CCCC2)C1` (centres undefined), with 0.402%; and `Cc1cccc(C2N3CCC4(CC3)c3[nH]c5ccccc5c3CCN24)n1` (centres undefined), with 5.13%.
As for `Cc1cc(C(=O)N2CCc3c(ncn3CCc3ccccc3)C2)on1`, the cytotoxicity at 70.5 h was -7.15%.
Then `O=C(c1ccccn1)N1CCC2(CC1)COC(COCC1CC1)C2` (centres undefined), with -8.98%; and `CN(CCn1cccn1)S(=O)(=O)c1cccc(Cl)c1C#N`, with -7.08%.
In the case of `CCS(=O)(=O)N1CCc2ccc(=O)n(CC3CC3)c2CC1`, the cytotoxicity at 70.5 h was -9.39%.
For the compound `Cc1cc(N2CCN(C(=O)[C@@H]3C[C@@H]4C=C[C@H]3C4)CC2)cc(C)n1`, the cytotoxicity at 70.5 h was -15.6%.
Take `CC1CN(C(=O)c2cccc(OCc3cscn3)c2)CCO1` (centres undefined): the cytotoxicity at 70.5 h was -1.66%.
For `Cc1cccc(CN2CC[C@H]3C[C@H](C)O[C@@H]3C2)n1` the value was -4.58%.

The values are drawn from ChEMBL document CHEMBL3507680, “University of Dundee, Gates Library screen for HepG2 cell viability”.
